“And” between values parts separate entries of the source, which are not always exact repeats. Equal entries are not always repeated. Inconclusive results and toxic doses are left out.
Test system: CD2F1 mice, L1210 leukemia ip, survival T/C
Test: NCI In Vivo Anticancer Drug Screen. Data for tumor model L1210 Leukemia (intraperitoneal) in CD2F1 (CDF1) mice
Conditions: higher = longer survival
Procedure, shortened: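 Compound-dosed mice with transplantable tumor versus matched vehicle controls; endpoint ratio T/C reported.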

[1] = endpoint: mean survival time, dose: 50.0 mg/kg/injection, schedule: Q01DX009 (ip), vehicle: saline with Tween-80
[2] = endpoint: mean survival time, dose: 100.0 mg/kg/injection, schedule: Q01DX009 (ip), vehicle: saline with Tween-80
[3] = endpoint: mean survival time, dose: 100.0 mg/kg/injection, schedule: Q04DX003 (ip), vehicle: saline with Tween-80
[4] = endpoint: mean survival time, dose: 200.0 mg/kg/injection, schedule: Q01DX009 (ip), vehicle: saline with Tween-80
[5] = endpoint: mean survival time, dose: 200.0 mg/kg/injection, schedule: Q04DX003 (ip), vehicle: saline with Tween-80

Compound: [CH3][Sn]([CH3])([Br])[CH2]CCBr
- T/C (endpoint: mean survival time, dose: 0.39 mg/kg/injection, schedule: Q01DX009 (ip), vehicle: saline with Tween-80): 100 % of control
- T/C (endpoint: mean survival time, dose: 0.39 mg/kg/injection, schedule: Q01DX009 (ip), vehicle: saline): 90 % of control
- T/C (endpoint: mean survival time, dose: 0.78 mg/kg/injection, schedule: Q01DX009 (ip), vehicle: saline with Tween-80): 100 % of control
- T/C (endpoint: mean survival time, dose: 0.78 mg/kg/injection, schedule: Q01DX009 (ip), vehicle: saline): 90 % of control
- T/C (endpoint: mean survival time, dose: 1.56 mg/kg/injection, schedule: Q01DX009 (ip), vehicle: saline): 97 % of control

Compound: COc1ccc(C(=O)/C=C/c2cccc3ccccc23)cc1
- T/C (endpoint: mean survival time, dose: 25.0 mg/kg/injection, schedule: Q01DX009 (ip), vehicle: saline with Tween-80): 91 % of control
- T/C [1]: 93 % of control
- T/C [2]: 91 % of control

Compound: CCOC(=O)C1(C(=O)O)CC2C(C)C=CC(C)C2C1 (configuration not stated)
- T/C (endpoint: mean survival time, dose: 100.0 mg/kg/injection, schedule: Q01DX009 (ip), vehicle: Klucel (hydroxypropylcellulose) (HPC)): 100 % of control
- T/C (endpoint: mean survival time, dose: 200.0 mg/kg/injection, schedule: Q01DX009 (ip), vehicle: Klucel (hydroxypropylcellulose) (HPC)): 102 % of control
- T/C (endpoint: mean survival time, dose: 400.0 mg/kg/injection, schedule: Q01DX009 (ip), vehicle: Klucel (hydroxypropylcellulose) (HPC)): 96 % of control

Compound: CCN(CC)CC(=O)O[C@]1(CC)C(=O)OCc2c1cc1n(c2=O)Cc2cc3ccccc3nc2-1
- T/C (endpoint: median survival time, dose: 1.0 mg/kg/injection, schedule: Q01DX009 (ip), vehicle: water): 124 % of control and 109 % of control
- T/C (endpoint: median survival time, dose: 3.75 mg/kg/injection, schedule: Q04DX002 (ip), vehicle: water): 114 % of control and 109 % of control
- T/C (endpoint: median survival time, dose: 3.75 mg/kg/injection, schedule: Q04HX004 (iv), vehicle: other): 150 % of control
- T/C (endpoint: median survival time, dose: 4.0 mg/kg/injection, schedule: Q01DX009 (ip), vehicle: water): 154 % of control and 163 % of control
- T/C (endpoint: median survival time, dose: 7.5 mg/kg/injection, schedule: Q04DX002 (ip), vehicle: water): 124 % of control
- T/C (endpoint: median survival time, dose: 7.5 mg/kg/injection, schedule: Q04HX004 (iv), vehicle: dextrose): 183 % of control
- T/C (endpoint: median survival time, dose: 7.5 mg/kg/injection, schedule: Q04HX004 (iv), vehicle: other): 175 % of control
- T/C (endpoint: median survival time, dose: 8.0 mg/kg/injection, schedule: Q01DX009 (ip), vehicle: water): 113 % of control
- T/C (endpoint: median survival time, dose: 15.0 mg/kg/injection, schedule: Q04DX002 (ip), vehicle: water): 157 % of control
- T/C (endpoint: median survival time, dose: 15.0 mg/kg/injection, schedule: Q04HX004 (iv), vehicle: dextrose): 218 % of control
- T/C (endpoint: median survival time, dose: 15.0 mg/kg/injection, schedule: Q04HX004 (iv), vehicle: other): 203 % of control
- T/C (endpoint: median survival time, dose: 30.0 mg/kg/injection, schedule: Q04DX002 (ip), vehicle: water): 223 % of control and 256 % of control
- T/C (endpoint: median survival time, dose: 30.0 mg/kg/injection, schedule: Q04HX004 (iv), vehicle: dextrose): 204 % of control
- T/C (endpoint: median survival time, dose: 30.0 mg/kg/injection, schedule: Q04HX004 (iv), vehicle: other): 268 % of control

Compound: COB(C1CCCCC1)C1CCCCC1
- T/C (endpoint: mean survival time, dose: 100.0 mg/kg/injection, schedule: Q01DX009 (ip), vehicle: other): 91 % of control
- T/C (endpoint: mean survival time, dose: 200.0 mg/kg/injection, schedule: Q01DX009 (ip), vehicle: other): 88 % of control

Compound: OC1CC2C3C4C1C1C2C3C41 (configuration not stated)
- T/C [2]: 104 % of control
- T/C [3]: 107 % of control
- T/C [4]: 95 % of control
- T/C [5]: 98 % of control
- T/C (endpoint: mean survival time, dose: 400.0 mg/kg/injection, schedule: Q01DX009 (ip), vehicle: saline with Tween-80): 95 % of control
- T/C (endpoint: mean survival time, dose: 400.0 mg/kg/injection, schedule: Q04DX003 (ip), vehicle: saline with Tween-80): 97 % of control

Compound: CN(C)/C=C\C(=O)O
- T/C (endpoint: mean survival time, dose: 100.0 mg/kg/injection, schedule: Q04DX002 (ip), vehicle: saline with Tween-80): 102 % of control
- T/C (endpoint: mean survival time, dose: 200.0 mg/kg/injection, schedule: Q04DX002 (ip), vehicle: saline with Tween-80): 102 % of control
- T/C (endpoint: mean survival time, dose: 400.0 mg/kg/injection, schedule: Q04DX002 (ip), vehicle: saline with Tween-80): 98 % of control

Compound: CC(C)(C)CC(C)(C)c1ccc(Oc2ccc([N+](=O)[O-])cc2S(=O)(=O)O)cc1
- T/C (endpoint: mean survival time, dose: 6.25 mg/kg/injection, schedule: Q04DX002 (ip), vehicle: saline with Tween-80): 96 % of control
- T/C (endpoint: mean survival time, dose: 12.5 mg/kg/injection, schedule: Q04DX002 (ip), vehicle: saline with Tween-80): 114 % of control
- T/C (endpoint: mean survival time, dose: 25.0 mg/kg/injection, schedule: Q04DX002 (ip), vehicle: saline with Tween-80): 87 % of control and 93 % of control

Compound: CCCCOC(=O)CCl
- T/C (endpoint: mean survival time, dose: 100.0 mg/kg/injection, schedule: Q01DX001 (ip), vehicle: saline): 100 % of control
- T/C (endpoint: mean survival time, dose: 200.0 mg/kg/injection, schedule: Q01DX001 (ip), vehicle: saline): 94 % of control

Compound: O=C(/C=C(\C(=O)c1ccccc1)c1ccccc1)c1ccccc1
- T/C [1]: 95 % of control
- T/C (endpoint: mean survival time, dose: 50.0 mg/kg/injection, schedule: Q04DX003 (ip), vehicle: saline with Tween-80): 92 % of control
- T/C [2]: 96 % of control
- T/C [3]: 87 % of control
- T/C [4]: 101 % of control
- T/C [5]: 87 % of control
